Test results: publication PMC10340532, “MCAK Inhibitors Induce Aneuploidy in Triple-Negative Breast Cancer Models” (Cancers, 2023)

Biological target: T1, MCAK (Homo sapiens, UniProt Q99661)
T1 construct: gene KIF2C
T1 sequence (Q99661 2-725): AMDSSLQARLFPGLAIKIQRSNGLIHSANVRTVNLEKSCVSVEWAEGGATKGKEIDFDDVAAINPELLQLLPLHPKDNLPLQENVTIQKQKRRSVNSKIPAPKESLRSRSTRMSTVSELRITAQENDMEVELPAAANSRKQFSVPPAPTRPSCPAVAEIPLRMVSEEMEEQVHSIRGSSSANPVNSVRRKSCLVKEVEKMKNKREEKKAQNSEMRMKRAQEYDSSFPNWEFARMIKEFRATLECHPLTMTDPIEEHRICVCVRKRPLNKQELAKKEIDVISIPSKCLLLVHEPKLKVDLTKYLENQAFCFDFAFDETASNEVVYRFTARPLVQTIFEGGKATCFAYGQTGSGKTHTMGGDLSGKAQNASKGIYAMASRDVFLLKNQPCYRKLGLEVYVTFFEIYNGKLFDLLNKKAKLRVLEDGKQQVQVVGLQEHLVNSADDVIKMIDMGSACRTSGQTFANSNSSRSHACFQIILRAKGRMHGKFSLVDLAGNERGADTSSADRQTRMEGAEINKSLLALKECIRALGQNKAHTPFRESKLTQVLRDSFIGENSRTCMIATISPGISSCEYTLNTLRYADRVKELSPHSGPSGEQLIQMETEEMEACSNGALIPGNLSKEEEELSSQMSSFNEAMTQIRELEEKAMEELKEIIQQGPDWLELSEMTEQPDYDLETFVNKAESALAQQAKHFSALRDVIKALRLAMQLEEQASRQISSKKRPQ
Assay: sedimentation-based microtubule depolymerization assay with purified FMCAK; FRET conformation screen, FCP counter screen
Type: biochemical

## CC(C)c1noc(C2CCCN2C(=O)c2cc(=O)c3ccccc3o2)n1 (stereo not shown) [H9, 2042 H9]
  sedimentation-based microtubule depolymerization assay with purified FMCAK; FRET: 5 µM
